Entries after “also recorded” stand apart in the source; their conditions may differ. Marks after values point to notes of the source that are not given here.
How the values were obtained:
PGE2 = PGE2 content of paw exudate by ELISA, carrageenan paw edema model; assay type: in vivo, Sprague Dawley rats; details: vs carrageenan group
Experimental: (§1) ELISA assessment assays were conducted as cited (Supplementary Materials, page 53).
(§2) In-vivo anti-inflammatory activity […]
(§3) cervical dislocation. […] The percentage
(§4) Weight of the left paw] ×100.
(§5) Assessment of inflammatory biomarkers using ELISA […]
(§6) content, using enzyme -linked immunosorbent assay (ELISA). The ELISA kits were purchased from CLOUD -CLONE CORP (CCC, USA) (Cat# SEA133Ra) and MyBioSource company (British Columbia, Canada) (Cat# MBS730592) respectively, and the assays were performed following the manufacturer' s instructions. Additionally, the protein content of the exudates was determined using the Bradford method.

COX-2 = details: cited from earlier work
[1] = Assessment of liver and kidney function (serum ALT, AST, creatinine, urea); assay type: in vivo, rats; set-up: Urea: unit not given here; details: mean ± SD
Experimental: These assessments were conducted following the manufacturer’s instructions (Supplementary Materials, page 55).
In-vivo anti-inflammatory activity
as §3, §4
Assessment of inflammatory biomarkers using ELISA

[2] = tested on: paw tissue, carrageenan paw edema model; experiment: Histopathological examination of paws, inflammatory cell infiltration score; assay type: in vivo, rats
Experimental: The histopathological assessments were performed according to the following procedures (Supplementary Materials, page 54). […]
Histopathological examination
Thirty-six rats were separated into six groups of six rats each for histological assessment […]
groupings consisted of a control group, a carrageenan group, two groups for the reference drugs […]
protocols that were utilized in the in-vivo anti-inflammatory activity test were used. After a duration of 5 hours, the animals were euthanized, and their left paws were amputated. The paws were preserved in 10% neutral buffered formalin, trimmed, washed, dehydrated in increasing concentrations of ethyl alcohol, clarified in xylene, and ultimately embedded in paraffin. They were then sliced into 4-6µ thick slices, stained with Hematoxylin and Eosin, and examined under a light microscope. A scoring system was used to evaluate the degree of inflammation, dividing it into six categories ranging from 0 indicating no inflammation to 5 indicating severe inflammation.
Each score corresponded to a certain level of inflammation: 0 for no inflammation, 1 for mild inflammation, 2 for mild to moderate inflammation, 3 for moderate inflammation, 4 for moderate to severe inflammation, and 5 for severe inflammation.

TNF-α = TNF-α content of paw exudate by ELISA, carrageenan paw edema model; assay type: in vivo, Sprague Dawley rats; details: vs carrageenan group
Experimental: as §1, §2, §3, §4, §5, §6

ovine COX-1 = target: T1, ovine COX-1 (Ovis aries, UniProt P05979); experiment: In vitro COX-1 inhibition assay (Cayman colorimetric COX inhibitor screening kit)
T1 sequence (P05979 25-600): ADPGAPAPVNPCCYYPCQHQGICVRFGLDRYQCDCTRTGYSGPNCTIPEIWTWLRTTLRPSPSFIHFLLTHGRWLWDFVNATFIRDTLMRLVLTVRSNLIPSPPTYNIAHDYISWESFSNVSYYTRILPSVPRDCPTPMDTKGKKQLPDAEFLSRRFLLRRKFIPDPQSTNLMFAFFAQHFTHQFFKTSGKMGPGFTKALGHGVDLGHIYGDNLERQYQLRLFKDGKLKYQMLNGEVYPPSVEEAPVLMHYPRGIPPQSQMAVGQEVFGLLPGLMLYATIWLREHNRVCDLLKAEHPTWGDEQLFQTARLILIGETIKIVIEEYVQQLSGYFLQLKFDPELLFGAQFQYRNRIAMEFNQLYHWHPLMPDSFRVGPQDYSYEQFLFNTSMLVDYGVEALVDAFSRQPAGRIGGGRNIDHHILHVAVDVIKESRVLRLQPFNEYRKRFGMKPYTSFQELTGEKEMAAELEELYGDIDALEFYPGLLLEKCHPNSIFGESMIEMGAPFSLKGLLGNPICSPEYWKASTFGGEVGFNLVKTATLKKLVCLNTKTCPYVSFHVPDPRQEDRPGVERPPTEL
Experimental: (§7) The in vitro enzyme assays were performed at the Biochemistry Department, Cairo
(§8) General Hospital, Egypt. Cayman® colorimetric COX (ovine) inhibitor screening assay kit (Item
(§9) enzymes in presence of all newly compounds. Generally, this kit is dependent on the reductive
(§10) reaction of COX. A specific antibody binds to PGH2 produced by COX and is further quantified
(§11) by the ELISA technique as previously reported. After that, the selectivity index (SI) was calculated
as the following equation:
𝐒𝐞𝐥𝐞𝐜𝐭𝐢𝐯𝐢𝐭𝐲 𝐢𝐧𝐝𝐞𝐱 (𝐒𝐈) = 𝐈𝐂₅₀𝐨𝐟 𝐂𝐎𝐗 − 𝟏

human COX-2 = target: T2, human COX-2 (Homo sapiens, UniProt P35354); experiment: In vitro COX-2 inhibition assay (Cayman colorimetric COX inhibitor screening kit)
T2 sequence (P35354 18-604): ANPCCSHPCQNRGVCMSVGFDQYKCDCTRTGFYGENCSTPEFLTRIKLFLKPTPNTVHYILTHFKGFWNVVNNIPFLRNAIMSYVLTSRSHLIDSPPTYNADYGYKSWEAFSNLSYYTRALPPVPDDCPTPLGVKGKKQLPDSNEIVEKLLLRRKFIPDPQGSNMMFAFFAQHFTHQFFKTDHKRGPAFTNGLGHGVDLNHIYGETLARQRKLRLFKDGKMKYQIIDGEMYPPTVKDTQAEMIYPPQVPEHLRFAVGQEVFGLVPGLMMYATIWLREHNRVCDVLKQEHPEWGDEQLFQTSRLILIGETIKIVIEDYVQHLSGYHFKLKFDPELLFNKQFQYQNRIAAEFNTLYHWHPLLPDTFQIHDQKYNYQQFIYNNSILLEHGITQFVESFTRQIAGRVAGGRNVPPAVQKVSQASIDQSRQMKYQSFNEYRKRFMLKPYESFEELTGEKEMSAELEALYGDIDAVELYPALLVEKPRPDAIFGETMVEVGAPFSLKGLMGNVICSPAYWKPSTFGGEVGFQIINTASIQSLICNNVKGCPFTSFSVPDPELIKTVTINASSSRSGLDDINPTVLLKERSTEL
Experimental: as §7, §8, §9, §10, §11
as the following equation:
𝐒𝐞𝐥𝐞𝐜𝐭𝐢𝐯𝐢𝐭𝐲 𝐢𝐧𝐝𝐞𝐱 (𝐒𝐈) = 𝐈𝐂₅₀𝐨𝐟 𝐂𝐎𝐗 − 𝟏

gastric mucosa = experiment: Evaluation of ulcerogenic effects (macroscopic scores and gastric histopathology)
Experimental: The assessment of ulcerogenic effects was conducted following established procedures [42, 57]
Following the experimental period, the animals were euthanized using pentobarbital sodium (100 mg/kg), and blood was collected via jugular vein exsanguination for later evaluation of liver and kidney function, and subsequently sacrificed by cervical dislocation. […] Following this, the animals' stomachs were removed, inflated, and opened along the greater curvature to evaluate ulcerogenic effects.
B: Ulcer lesion severity scoring system
2.5 More than 10 small ulcers
3 1 marked ulcer plus 0 to 4 small ulcers
3.5 1 marked ulcer plus 5 or more small ulcers
4 2 marked ulcers plus 0 to 4 small ulcers
4.5 2 marked ulcers plus 5 or more small ulcers
5 3 or more marked ulcers
The statistical analysis of the data was conducted using GraphPad Prism 9.5.1 Demo
(GraphPad Software, San Diego, CA). One -way analysis of variance (ANOVA) was utilized to
evaluate differences among the various groups, except for paw edema volume, which un derwent
analysis using two -way ANOVA. Post -hoc analysis was performed using Tukey's multiple
significance set at P < 0.05

[3] = tested on: nociceptive responses on hot plate; experiment: Hot plate latency test (analgesic activity); assay type: in vivo, rats; details: for Hot plate latency period: plate 50 °C, mean ± SD, n = 6
Experimental: The hot plate latency test was performed according to the following procedures (Supplementary Materials, page 54). […]
In summary, thirty rats
The normal control group received 1% CMC, while the remaining groups were administered their respective reference or test compounds. Each rat was gently positioned on a heated plate set at 50 ◦C. The latency period for nociceptive responses, such as paw licking or jumping off the hot plate, was recorded at 30-, 60-, 90-, and 120 minutes post-administration of the reference drugs, test […]

[4] = tested on: carrageenan-induced paw edema; experiment: Carrageenan paw edema test (paw thickness, paw weight); details: for Paw thickness difference: oral; for Percentage of inhibition of paw thickness: vs carrageenan group
Experimental: The carrageenan paw edema test was conducted following established procedures as detailed (Supplementary Materials, page 53).
The carrageenan paw edema test was conducted following established procedures. In summary, seventy-two rats were randomly assigned to twelve groups, each comprising six rats.
These groups included normal controls, carrageenan controls (both receiving the vehicle; 1%
Acute inflammation was induced in the right hind paws of all rats one hour after oral administration of the respective compounds or vehicle. This was achieved by injecting a freshly prepared 0.1 mL carrageenan suspension (1% in normal saline) subplantarly into the right hind paw, except for the normal control group, which received a saline injection. Paw thickness was measured hourly (Ct) until the fifth hour (C5) post-carrageenan injection (C0). The hourly increase in paw thickness (paw thickness difference) was calculated by subtracting the initial measurement (C0) from the thickness at each hour (Ct), and the results were presented as the mean increase in paw thickness (mm). To evaluate anti-inflammatory effects, the percentage of inhibition for each standard and test compound was determined using the formula: percentage of inhibition (%) = [(Paw thickness difference of carrageenan group - Paw thickness difference of treated)/ Paw thickness difference of carrageenan group] × 100. […] The paws were then excised and weighed (both left and right). The percentage of weight increase between the left and right paws of each animal was calculated using the equation: Percentage of weight increase = [(Weight of the right paw - Weight of the left paw) / Weight of the left paw] ×100.

[5] = compared to the normal control group

IC50 (ovine COX-1): 29.9 ± 0.09 µM
SI (COX-2 selectivity index) (human COX-2; COX-1 (IC50)/COX-2 (IC50)): 15.10
IC50 (human COX-2; COX-2 IC50, mean ± SEM, n = 3): 1.98 ± 0.02 µM
Structure (SMILES): Cc1cccc(Nc2ccccc2C(=O)O)c1C [Mefenamic acid, mefenamic acid, reference compound]
Reduction of PGE2 exudate content (PGE2): 59.37%
IC50 (COX-2): 5.3 µM
ALT ([1]; n = 6): 88.84 ± 6.09 IU/L
AST ([1]; n = 6): 97.51 ± 8.08 IU/L
AST/ALT ([1]; n = 6): 1.10 ± 0.15
Urea ([1]; n = 6): 27.58 ± 2.08
Creatinine ([1]; n = 6, in mg/dL (unit assumed)): 0.72 ± 0.05
Paw histopathological finding ([2]; H&E staining, carrageenan paw edema): infiltration of dermis by high number of inflammatory cells mainly lymphocytes and eosinophils; also recorded: significant cutaneous infiltration by inflammatory cells
Reduction in inflammatory cell infiltration score ([2]; vs carrageenan group, paw, 5 hours): 37.04%
Reduction of TNF-α exudate content (TNF-α): 60.09%
Gastric mucosa histopathological finding (gastric mucosa; H&E staining): ulcer formation with desquamation of gastric mucosal epithelium; also recorded: ulcer development and desquamation of the stomach mucosal epithelium
Increase in ulcer number (gastric mucosa; [5]): 233.33%
Increase in ulcer severity score (gastric mucosa; [5]): 366.67%
Ulcer Number Score (gastric mucosa; mean ± SD, n = 6): 1.67 ± 0.82 ^a
Ulcer Severity Score (gastric mucosa; mean ± SD, n = 6, scale 0 to 5): 1.17 ± 0.61 ^a
Hot plate latency period ([3]; 30 min post-administration): 9.95 ± 0.35 ^ab
Increase in latency period ([3]; 60 min mark): 58.38%
Hot plate latency period ([3]; 60 min post-administration): 11.58 ± 0.25 ^ab
Hot plate latency period ([3]; 90 min post-administration): 12.83 ± 0.36 ^ab
Hot plate latency period ([3]; 120 min post-administration): 13.73 ± 0.42 ^a
Paw thickness difference ([4]; 1st h after carrageenan, mean ± SD, n = 6): 1.22 ± 0.19 mm
Percentage of inhibition of paw thickness ([4]; 1st h): 38.43%
Paw thickness difference ([4]; 2nd h after carrageenan, mean ± SD, n = 6): 2.27 ± 0.11 mm
Percentage of inhibition of paw thickness ([4]; 2nd h): 31.22%
Paw thickness difference ([4]; 3rd h after carrageenan, mean ± SD, n = 6): 2.86 ± 0.11 mm
Percentage of inhibition of paw thickness ([4]; 3rd h): 32.37%
Paw thickness difference ([4]; 4th h after carrageenan, mean ± SD, n = 6): 3.22 ± 0.19 mm
Percentage of inhibition of paw thickness ([4]; 4th h): 36.16%
Paw thickness difference ([4]; 5th h after carrageenan, mean ± SD, n = 6): 3.51 ± 0.07 mm
Percentage of inhibition of paw thickness ([4]; 5th h): 33.89%
Paw Weight Increase ([4]; right vs left paw, after 5 h, mean ± SD, n = 6): 34.08 ± 2.27 ^ab %
